Assay results as given in ChEMBL document CHEMBL4257523, “Chemical probes of Skp2-mediated p27 ubiquitylation and degradation” (Medchemcomm, 2018).

Tests used:
[1] = test system: JeKo-1; experiment: Antiproliferative activity against human JeKo1 cells; assay type: functional, cell-based
[2] = Antiproliferative activity against human ECC1 cells; assay type: functional, cell-based; settings: ECC-1
[3] = test system: S-phase kinase-associated protein 1/S-phase kinase-associated protein 2 (Homo sapiens); experiment: Inhibition of SKP1/SKP2 protein-protein interaction in human MM1S cells assessed as reduction in p27 ubiquitylation at 20 uM after 16 hrs by PAGE analysis relative to control
[4] = test system: MM1.S; experiment: Antiproliferative activity against human MM1S cells; assay type: functional, cell-based
[5] = Antiproliferative activity against human ANBL-6 cells; assay type: functional, cell-based
[6] = Antiproliferative activity against human ANBL6/B7R cells; assay type: functional, cell-based; settings: ANBL-6
[7] = Antiproliferative activity against human U266/LR6 cells; assay type: functional, cell-based; settings: U-266
[8] = test system: S-phase kinase-associated protein 1/S-phase kinase-associated protein 2 (Homo sapiens); experiment: Inhibition of SKP1/SKP2 protein-protein interaction in human MM1S cells assessed as reduction in p27 ubiquitylation at 10 uM after 16 hrs by PAGE analysis relative to control
[9] = test system: RPMI-8226; experiment: Antiproliferative activity against doxorubicin-resistant human RPMI8226 cells; assay type: functional, cell-based
[10] = test system: U-266; experiment: Antiproliferative activity against human U266 cells; assay type: functional, cell-based
[11] = test system: S-phase kinase-associated protein 1/S-phase kinase-associated protein 2 (Homo sapiens); experiment: Inhibition of SKP1/SKP2 protein-protein interaction in human MM1S cells assessed as reduction in p27 ubiquitylation at 25 uM after 16 hrs by PAGE analysis relative to control
[12] = Antiproliferative activity against human MM1R cells; assay type: functional, cell-based; settings: MM.1R
[13] = test system: RPMI-8226; experiment: Antiproliferative activity against human RPMI8226 cells; assay type: functional, cell-based
[14] = Antiproliferative activity against human RPMI8226/LR5 cells; assay type: functional, cell-based; settings: RPMI-8226
[15] = biological target: T1, Cyclin-dependent kinases regulatory subunit 1/S-phase kinase-associated protein 2 (Homo sapiens, UniProt P61024+Q13309); experiment: Inhibition of GST-tagged SKP2 (unknown origin)/His6-tagged CKS1 (unknown origin) expressed in Escherichia coli protein-protein interaction after 1 hr by Alpha screen assay
Target sequence in this assay (P61024 whole entry): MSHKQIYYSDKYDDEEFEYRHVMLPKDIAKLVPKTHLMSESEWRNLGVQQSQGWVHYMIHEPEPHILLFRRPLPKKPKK
Target sequence in this assay (Q13309 whole entry): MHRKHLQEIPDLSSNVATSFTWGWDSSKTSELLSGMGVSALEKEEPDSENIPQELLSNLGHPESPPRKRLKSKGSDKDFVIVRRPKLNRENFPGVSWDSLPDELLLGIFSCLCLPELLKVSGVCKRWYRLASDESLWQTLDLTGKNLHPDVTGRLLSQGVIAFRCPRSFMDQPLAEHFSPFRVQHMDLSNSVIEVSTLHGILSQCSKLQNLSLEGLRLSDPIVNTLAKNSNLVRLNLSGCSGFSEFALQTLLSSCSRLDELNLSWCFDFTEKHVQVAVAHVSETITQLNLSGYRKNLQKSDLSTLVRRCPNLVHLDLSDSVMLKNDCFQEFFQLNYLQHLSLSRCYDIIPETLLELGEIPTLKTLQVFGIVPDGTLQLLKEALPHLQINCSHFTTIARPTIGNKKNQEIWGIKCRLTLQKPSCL

[16] = test system: HeLa; experiment: Antiproliferative activity against human HeLa cells; assay type: functional, cell-based
[17] = Antiproliferative activity against mouse tsFT210 cells; assay type: functional, cell-based
[18] = test system: NIH3T3; experiment: Antiproliferative activity against mouse NIH/3T3 cells; assay type: functional, cell-based
[19] = biological target: T1, Cyclin-dependent kinases regulatory subunit 1/S-phase kinase-associated protein 2; experiment: Inhibition of N-terminal fluorescent monomeric Azami Green-tagged SKP2 (unknown origin)/CKS1 (unknown origin) expressed in Escherichia coli DH10 protein-protein interaction assessed as reduction in p27 ubiquitylation at 0.4 to 3.2 uM relative to control
Target sequence in this assay (P61024 2-79 limits assumed): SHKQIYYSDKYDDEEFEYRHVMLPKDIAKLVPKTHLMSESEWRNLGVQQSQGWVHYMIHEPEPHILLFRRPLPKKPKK
Target sequence in this assay (Q13309 whole entry partner): as the sequence (Q13309 whole entry) above

COC(=O)C1=C(C)N(c2ccc(Br)cc2)C(=O)/C1=C\c1ccccc1O gave an EC50 [1] of 9.3 µM and an EC50 [2] of 14.3 µM.

In the case of CN(C)c1ccc(CNCCC(Cc2ccccc2)C2CCOC(C)(C)C2)cc1 (configuration not stated), the inhibition [3] is reported as 44%, the IC50 [4] is reported as 5.4 µM and the IC50 [5] is reported as 10 µM. For the same compound, the IC50 [6] was 8 µM, the IC50 [7] was 4.3 µM and the inhibition [8] was 8%. It also gave an IC50 [9] of 8.5 µM, an IC50 [10] of 4.2 µM and an inhibition [11] of 51%. The IC50 [12] was 5.4 µM, the IC50 [13] was 8 µM and the IC50 [14] was 6.3 µM.

With O=C(OC12CC3CC(CC(C3)C1)C2)c1ccc(NCc2cc(O)ccc2O)cc1 the IC50 [15] was 36 µM.

With CN(C)c1ccc(C(=C2C=CC(=[N+](C)C)C=C2)c2ccc(N(C)C)cc2)cc1 [GENTIAN VIOLET] the IC50 [16] was 0.4 µM, the IC50 [17] was 0.6 µM and the IC50 [18] was 5.3 µM.

C=C(C)C(=O)O[C@H]1CC(=C)[C@@H]2C[C@H](O)[C@](O)(CCl)[C@@H]2[C@H]2OC(=O)C(=C)[C@@H]21 gave an IC50 [16] of 3.2 µM, an inhibition [19] of 70 to 80% and an IC50 [17] of 1.6 µM. The IC50 [18] was 12.7 µM.
